Literature values as cited in patent US20040146462A1, “Contrast agents” (priority 1998, published 2004).

Test system: coronary blood flow in healthy myocardial tissue
Conditions: administration of adenosine

For `Nc1ncnc2c1ncn2[C@@H]1O[C@H](CO)[C@@H](O)[C@H]1O` [adenosine], the “increase in coronary blood flow in healthy myocardial tissue” value is given as “in excess of fourfold”.
